According to patent US20090156551A1, “NOVEL COMPOSITION” (priority 2007, published 2009):
Read-outs that look alike come from different tables or passages of the source.

Experiments:
Inflammatory mediator NO = assay: Inhibition of nitric oxide synthesis in LPS-stimulated RAW264.7 macrophages (Griess reaction); type: cell-based, murine; conditions: for IC50: Mus musculus; for anti-inflammatory activity (in words): NO inhibition
Method: The anti-inflammatory effects were determined in cellular assays by measuring the inhibition of the synthesis of nitric oxide and/or pro-inflammatory prostaglandins (PGE2). PGE2 plays a critical role in the inflammation process, while nitric oxide (NO) is a hallmark of inflammation in various chronic inflammatory diseases including various forms of arthritis, gastro-intestinal diseases and metabolic syndrome X. The effects on the inflammatory response were tested in cellular assays using a murine macrophage cell line, RAW264.7. The cells were purchased from ATCC (Manassas, Va., USA) and cultured in DMEM containing streptomycin/penicillin, non-essential amino acids and 10% fetal calf serum (FCS). In order to test a large range of concentration of MA and HO as well as mixtures thereof, cells (˜50'000/well) were seeded into flat-bottomed microtiter plates and cultured for one day. Cells were then starved in complete medium containing 0.25% FCS (D-025). After overnight culture, medium was removed and replaced by 100 μL of D-025 containing the test compounds at twice the final concentration. Subsequently, 100 μL of D-025 containing 2 μg/ml LPS was added (i.e. final LPS concentration of 1 μg/ml) and the cells cultured for 24 hours. Substances were usually tested in a concentration range from 0.2 to 50 μM in two-fold dilution steps. All treatments were done in duplicates and several experimental series were done for each treatment. Concentrations of nitrite which was rapidly formed from nitric oxide released by cells were determined by the Griess reaction using sodium nitrite as standard. Briefly, 50 μl of supernatant was mixed with Griess reagent 1 (25 μL) and Griess reagent 2 (25 μL), centrifuged and the optical density at 540 nm determined. PGE2 secreted into the cell culture medium was determined by EIA obtained from Cayman Chemicals (Ann Harbor, Wis., USA) and used according to the manufacturer's instructions. All determinations were done in duplicates and at various dilutions of the culture supernatant. IC50 values for LPS-stimulated cells were calculated using a […] least-square fitting equation [y=A+((B−A)/(1+((C−x)̂D))] for best-fit curves (Excel fit software program).
In order to determine the synergistic concentration range of MA to HO, various mixtures thereof were tested for their anti-inflammatory by measuring the inhibition of the synthesis of nitric oxide (NO) as outlined above.
The synergistic effect of a combination of a mixture of MA/HO (1:3 w/w) with glucosamine sulfate (ratio MA/HO (1:3 w/w) to glucosamine sulfate: 50 μmol/L to 50 μmol/L) or chondroitin sulfate (ratio MA/HO (1:3 w/w) to chondroitin sulfate: 13.3 mg/L (i.e. 50 μmol/L) to 500 mg/L) on the inhibition of the inflammatory mediator nitric oxide (NO) has been evaluated based on the method published by Chou and Talalay (A simple generalized equation for the analysis of multiple inhibitions of Michealis-Menten kinetic systems. J. Biol. Chem. 1977. 252: 6438-6442).

Collagen I = assay: Gene expression in normal human chondrocytes, RT-PCR; type: cell-based; conditions: for Expression level (%) Collagen I: at 12.5 μmol/L, 4 hours, % of unstimulated cells (100%)
Aggrecan = assay: as above; type: cell-based; conditions: 4 hrs
Method: (§1) The effect of MA and HO, mixtures thereof as well as combinations with glucosamine sulfate and chondroitin sulfate on the expression of human aggrecan, collagen I, collagen II, or chondrocyte transcription factors (SOX-6, -9) was measured in vitro in normal human chondrocytes (derived from knee) (CC-2550; Cambrex, respectively). A control experiment without the compounds was done concomitantly to compare the expression of these genes (percentage expression of gene in controls was set to 100%).

TIMP-1 = assay: as above; type: cell-based; conditions: for Expression level (%) TIMP-1: at 12.5 μmol/L, 4 hours, % of unstimulated cells (100%)
Method: [Worded in the source for another target; this target is reported under the same test.] as §1

Collagen II = assay: as above; type: cell-based; conditions: 4 hrs; 50 μmol/L
MMP-9 = assay: as above; type: cell-based; conditions: stim. 4 hrs; 50 μmol/L
ADAMTS-4 = assay: as above; type: cell-based; conditions: unstim. 4 d; 50 μmol/L
[1] = tested on: Inflammatory mediator PGE2; assay: Inhibition of PGE2 synthesis in LPS-stimulated RAW264.7 macrophages (EIA); type: cell-based, murine; conditions: Mus musculus, read-out: IC50 Observed, inflammatory mediator PGE2
Method: The anti-inflammatory effects were determined in cellular assays by measuring the inhibition of the synthesis of nitric oxide and/or pro-inflammatory prostaglandins (PGE2). […] The cells were purchased from ATCC (Manassas, Va., USA) and cultured in DMEM containing streptomycin/penicillin, non-essential amino acids and 10% fetal calf serum (FCS). […] Cells were then starved in complete medium containing 0.25% FCS (D-025). After overnight culture, medium was removed and replaced by 100 μL of D-025 containing the test compounds at twice the final concentration. Subsequently, 100 μL of D-025 containing 2 μg/ml LPS was added (i.e. final LPS concentration of 1 μg/ml) and the cells cultured for 24 hours. […] Concentrations of nitrite which was rapidly formed from nitric oxide released by cells were determined by the Griess reaction using sodium nitrite as standard. Briefly, 50 μl of supernatant was mixed with Griess reagent 1 (25 μL) and Griess reagent 2 (25 μL), centrifuged and the optical density at 540 nm determined. PGE2 secreted into the cell culture medium was determined by EIA obtained from Cayman Chemicals (Ann Harbor, Wis., USA) and used according to the manufacturer's instructions. […] IC50 values for LPS-stimulated cells were calculated using a two-parametric least-square fitting equation [y=A+((B−A)/(1+((C−x)̂D))] for best-fit curves (Excel fit software program).

I-κBalpha = assay: Inflammatory gene expression in RAW 264.7 cells, quantitative RT-PCR; type: cell-based, murine; conditions: at 12.5 μmol/L, 4 hours; relative to LPS-stimulated cells (100%)
From the text: (§2) Inflammatory responses are orchestrated by the transient activation of a variety of genes. Their regulation is tightly controlled via signaling pathways and eventually proteins that control the expression of genes such as transcription factors. Consequently, the effect of the compounds (each of them and various ratios of mixtures) has also been evaluated at the level of the expression of genes that are involved in the inflammatory response. These comprise genes of the prostaglandin synthesis pathway (e.g. COX-2), interleukins (e.g. IL1-α, IL-1β, IL-6), cytokines (e.g. TNF-α), inducible nitric oxide synthase (iNOS) and chemokines. RAW 264.7 cells were stimulated in the presence of different concentrations of substances. After 4 hours, RNA was extracted and the expression of genes determined by quantitative RT-PCR as described by Richard, […]. and […]. in Mol Nutr Food Res 2005. 49: 431-442. In table 3, the effect of MA and HO alone as well as of mixtures thereof in the indicated molar ratios on the expression of inflammatory genes or on anti-inflammatory transcription factors (I-κBα) is shown. The level of mRNA was determined by RT-PCR and expressed relative to the level observed in LPS-stimulated cells (i.e. without compounds).

IL-10 = assay: as above; type: cell-based, murine; conditions: at 12.5 μmol/L, 4 hours; relative to LPS-stimulated cells (100%)
From the text: as §2

IL-1alpha = assay: as above; type: cell-based, murine; conditions: at 12.5 μmol/L, 4 hours; relative to LPS-stimulated cells (100%)
From the text: as §2

TNF-alpha = assay: as above; type: cell-based, murine; conditions: at 12.5 μmol/L, 4 hours; relative to LPS-stimulated cells (100%)
From the text: as §2

SOX-6 = assay: Gene expression in normal human chondrocytes, RT-PCR; type: cell-based; conditions: at 12.5 μmol/L, 4 hours; % of unstimulated cells (100%)
SOX-9 = assay: as above; type: cell-based; conditions: for Expression level (%) SOX-9: at 12.5 μmol/L, 4 hours, % of unstimulated cells (100%)
Method: as §1

IL-RI Receptor for Il-1 = assay: as above; type: cell-based; conditions: at 12.5 μmol/L, 4 hours; control set at 100%
[2] = tested on: normal human chondrocytes; assay: Effects on chondrocytes (cartilage build-up), overall gene expression; type: cell-based; conditions: 12.5 μmol/L, un- (non-IL1 beta-) stimulated cells
Method: as §1
In table 2.1 the effect of MA and HO alone as well as of mixtures thereof in the indicated molar ratios on the expression of genes that are involved in cartilage build-up is shown.

ADAMTS-5 = assay: Gene expression in normal human chondrocytes, RT-PCR; type: cell-based; conditions: stim. 4 hrs; 500 mg/L; % of IL1β-treated cells
Method: [Worded in the source for another target; this target is reported under the same test.] as §1

MMP-2 = assay: as above; type: cell-based; conditions: 4 d; 500 mg/L; % of IL1β-treated cells
[3] = LPS 1 μg/ml, 24 hours, RAW264.7, read-out: IC50 Observed, inflammatory mediator NO

N[C@H]1C(O)O[C@H](CO)[C@@H](O)[C@@H]1O.O=S(=O)(O)O (stereo partly drawn) [Glucosamine sulfate, glucosamine sulfate]
IC50 (Inflammatory mediator NO; single substance, LPS-stimulated RAW264.7, read-out: IC50 Nitric Oxide): > 100 µM | anti-inflammatory activity (in words) (Inflammatory mediator NO; single substance): marginal anti-inflammatory | level of gene expression Collagen 1 (Collagen I; 4 hrs, 50 μmol/L): 121% | level of gene expression Aggrecan (Aggrecan; 50 μmol/L): 81% | level of gene expression TIMP-1 (TIMP-1; 4 hrs, 50 μmol/L): 110% | level of gene expression Collagen II (Collagen II): 154% | level of gene expression MMP-9 (MMP-9): 114% | level of gene expression ADAMTS-4 (ADAMTS-4): 101%

C=CCc1ccc(O)c(-c2ccc(O)c(CC=C)c2)c1 [HO, 3′,5-Diallyl-2,4′-biphenyldiol]
IC50 (Inflammatory mediator NO; [3]): 4.58 µM | IC50 ([1]; LPS 1 μg/ml, 24 hours, RAW264.7): 2.05 µM | Expression level (%) I-κBalpha (I-κBalpha): 96% | Expression level (%) IL-10 (IL-10): 94% | Expression level (%) IL-1alpha (IL-1alpha): 68% | Expression level (%) TNF-alpha (TNF-alpha): 81% | Expression level (%) Collagen I (Collagen I): 100% | Expression level (%) SOX-6 (SOX-6): 130% | Expression level (%) SOX-9 (SOX-9): 124% | Expression level (%) TIMP-1 (TIMP-1): 106% | Expression level (%) IL-RI (Receptor for Il-1) (IL-RI Receptor for Il-1): 89% | cartilage build-up effect (in words) [2]: favors cartilage build-up

C=CCc1ccc(O)c(-c2cc(CC=C)ccc2O)c1 [MA, 5,5′-Diallyl-2,2′-biphenyldiol]
IC50 (Inflammatory mediator NO; [3]): 8.91 µM | IC50 ([1]; RAW264.7, 24 h): 5.09 µM | Expression level (%) I-κBalpha (I-κBalpha): 99% | Expression level (%) IL-10 (IL-10): 136% | Expression level (%) IL-1alpha (IL-1alpha): 70% | Expression level (%) TNF-alpha (TNF-alpha): 96% | Expression level (%) Collagen I (Collagen I): 78% | Expression level (%) SOX-6 (SOX-6): 94% | Expression level (%) SOX-9 (SOX-9): 110% | Expression level (%) TIMP-1 (TIMP-1): 96% | Expression level (%) IL-RI (Receptor for Il-1) (IL-RI Receptor for Il-1): 98% | cartilage build-up effect (in words) [2]: to lesser extent

Chondroitin sulfate
IC50 Nitric Oxide (Inflammatory mediator NO; single substance, LPS-stimulated RAW264.7): >50 µg/mL | anti-inflammatory activity (in words) (Inflammatory mediator NO; single substance): marginal anti-inflammatory | level of gene expression ADAMTS-5 (ADAMTS-5): 107% | level of gene expression Aggrecan (Aggrecan; stim., 500 mg/L): 62% | level of gene expression SOX-9 (SOX-9; 500 mg/L, % of unstimulated cells): 147% | level of gene expression TIMP-1 (TIMP-1; unstim., 4 d, 500 mg/L): 106% | level of gene expression MMP-2 (MMP-2): 93%
